We go through one substance from patent US10064942B2, “Copper-cysteamine and methods of use” (THE BOARD OF REGENTS, THE UNIVERSITY OF TEXAS SYSTEM, priority 2013, dated 2018).

Data set [1] has as its system human prostate cancer (PC3) cells. Briefly: X-ray (2 Gy) destruction of PC3 cells, fluorescence imaging. The class given is cell-based. The conditions noted are these: Cu-Cy crystals plus X-ray 2 Gy. An excerpt: FIGS. 14A-14D depict the comparison of X-ray (2 Gy) destruction on human prostate cancer (PC3) cells without (top row, FIG. 14A and FIG. 14B) and with (bottom row, FIG. 14C and FIG. 14D) Cu-Cy crystals. […] The scale bar is always 100 μm.
As such, the combination of the disclosed Cu-Cy material and a source of radiation provides an effective method for inducing cell death.

Data set [2] has as its system human breast cancer (MCF-7) cells. Briefly: X-ray destruction of MCF-7 cells, calcein/EthD-1 fluorescence imaging. The class given is cell-based. An excerpt: FIGS. 13A-13D depict the comparison of X-ray (2 Gy) destruction on human breast cancer (MCF-7) cells without (top row, FIG. 14A and FIG. 14B) and with (bottom row, FIG. 14C and FIG. 14D) Cu-Cy crystals. […] The scale bar is always 100 μm.
As stated herein above, the disclosed Cu-Cy compound also absorbs X-rays and emits a luminescent spectrum. FIG. 13A-13D depicts the MCF-7 cell viabilities by fluorescence images with and without Cu-Cy crystals and with and without X-ray irradiation. As with UV radiation, X-ray irradiation of cells incubated with the disclosed Cu-Cy complex is also an effective method for causing cell death.
FIGS. 14A-D depict fluorescence images of MCF-7 cells before and after 1 Gy X-ray exposure by an OLYMPUS IX71 microscope. Calcein and ethidiumhomodimer 1 (EthD-1) were used as the stains showing cells alive (green) and dead (red) respectively. Each of the images was taken immediately after staining, without further cell incubation.
MCF-7 cells were seeded into two 6-well plates (A and B) at 5,000 cells/well and incubated for 48 h at 37° C. in a humidified atmosphere of 5% v/v CO2 at dark. On the day of the experiment, the culture medium was removed and 5 mL medium containing 0 and 40 μg/ml Cu-Cy particles were added to different wells. […] The cells were viewed under an OLYMPUS IX71 fluorescence microscope.

The next data set relates to MCF-7 tumors. The class given is in vivo, nude mice. Here is the method:
A suspension of 10×10^6MCF-7 cancer cell lines was injected subcutaneously into flanks on both shoulder and leg area of nude mice. Mice were monitored on a daily basis for the growth of tumors (FIG. 24). […] Saline (10 μL, as control, left shoulder) and Cu-Cy with concentration about 0.8 mg/mL (10 μL-right shoulder, 15 μL-left leg and 20 μL-right leg) were injected intra-tumorally. At one minute post-injection, mice were anesthetized with 2% (v/v) isofluorane, and tumors were irradiated with an X-ray dose of 5 Gy. Without X-ray treatment (top row), the tumors grew as time progressed, and there was no apparent size difference among Cu-Cy dosages of 10, 15, and 20 μl. Meanwhile, the tumors with no Cu-Cy (saline only) treatment were larger than the tumors with Cu-Cy treatment. […] The animals were sacrificed via CO2 inhalation and cervical […] on the day 13 of tumor growth. Absent X-ray radiation (top row), the tumors without Cu-Cy treatment grew to a somewhat larger volume than those treated by Cu-Cy, which indicates the minor toxicity from the Cu-Cy particles themselves. […] This is seen by comparing the two tumors treated with saline with and without X-ray radiation. For the treatment with 20 μL of Cu-Cy particles at 5 Gy dose, the tumor size is reduced to about 3 mm in diameter while the untreated tumor size is about 10 mm in diameter.

The test system of data set [3] is human breast cancer (MCF-7) cells. Briefly: UV light (350 nm) destruction of MCF-7 cells, fluorescence imaging. The class given is cell-based. As to conditions: MCF-7 cells exposed to Cu-Cy and irradiated with UV light (350 nm). An excerpt:
FIGS. 12A-12D depict the comparison of UV light (350 nm) destruction on human breast cancer (MCF-7) cells without (top row, FIG. 12A and FIG. 12B) and with (bottom row, FIG. 12C and FIG. 12D) Cu-Cy crystals. […] The scale bar is always 100 μm.
Photo-induced toxicity was then applied to cancer cells.

For another data set, the system named is MCF-7 cells. The experiment in a line: MTT cytotoxicity of Cu-Cy crystals in MCF-7 cells. As to conditions: 24 h incubation. The class given is cell-based, human. Here is the method:
The toxicity of Cu-Cy crystals in MCF-7 cells was evaluated using an MTT (3-(4,5-dimethylthiazol-2-yl)-2,5-diphenyltetrazoliumbromide) assay. 2 mg of the Cu-Cy crystals were well ground and sonicated before being dissolved in 1 mL of DI water (control) for the measurement.
Cytotoxicity was evaluated using the MTT assay. Approximately 2,000 cells/well MCF-7 cells were seeded into 96-well plates and allowed to grow for 48 hours in an incubator (Sanyo, Japan, 5% CO2, 37° C., humidified atmosphere). On the day of the experiment, after removing the culture medium, different volumes of media containing Cu-Cy particles were added to their respective wells and cytotoxicity was evaluated after 24 h of cell incubation

Another data set is described as follows: Stability in solution. The class given is physicochemical. The conditions noted are these: aqueous solution and other common solvents.
Data set [4] relates to human hepatocellular liver cells (HEPT). The experiment in a line: UV light (350 nm) destruction of liver cells, calcein/EthD-1 fluorescence imaging. The class given is cell-based. An excerpt:
FIGS. 11A-11D depict the comparison of UV light (350 nm) destruction on human hepatocellular liver cells (HEPT) without (top row, FIG. 11A and FIG. 11B) and with (bottom row, FIG. 11C and FIG. 11D) Cu-Cy crystals. […] The scale bar is always 100 μm.
FIGS. 11A-11D depict the effectiveness of the Cu-Cy material as causing cell death when irradiated with UV light or X-ray. For example, in FIGS. 11A-11D, the fluorescence images of human hepatocellular liver cells were taken before and after the UV light exposure (350 nm, for 2 minutes, from an OLYMPUS IX71 microscope). Calcein and Ethidium homodimer 1 (EthD-1) were used as the stains showing cell alive (green) and death (red) respectively.
Each of the images was taken right after the staining without further liver cell incubation.

As to “Cu3Cl(SR)2 wherein R is —CH2CH2NH2 [Cu-Cy]”, the cell death entry in data set [1] is recorded as “Significant cell death”; in data set [2] (Cu-Cy particles alone, no X-ray), “little cell death”; in data set [4] (Cu-Cy crystals alone, no UV irradiation) it was “does not result in significant cell death”; in data set [4] (Cu-Cy crystals plus UV light 350 nm for 2 minutes) it was “significant cell death”. Moreover, the cell destruction result in data set [2] (Cu-Cy coupled with X-ray treatment (1 Gy; 2 Gy elsewhere in the source)) is recorded as “significant cell destruction”. In addition, the “tumor size (diameter)” value in the data set with MCF-7 tumors (20 μL Cu-Cy (about 0.8 mg/mL) intra-tumoral, X-ray 5 Gy, day 13) was “about 3 mm”. Further, in the data set on MCF-7 tumors (mouse, in vivo), the “toxicity of Cu-Cy particles themselves in vivo” value was “slight toxicity in vivo”. The tumor growth entry in the data set on MCF-7 tumors (with X-ray radiation 5 Gy, 15 and 20 μL Cu-Cy dosages) was “greatly reduced”. Besides, the “tumor size or growth” value in the data set with MCF-7 tumors (without X-ray, Cu-Cy 10, 15, 20 μL) is given as “does not significantly reduce tumor size or growth”. Also, the cellular death entry in data set [3] was “significant cellular death”. In addition, the cellular viability entry in the data set with MCF-7 cells (Cu-Cy 0.1 μg/ml) is listed as “about 95%”; in the data set on MCF-7 cells (Cu-Cy 200 μg/ml), “about 70%”. Besides, in the data set “Stability in solution”, the stability entry is “stable in aqueous solution”.
